Each structure is given as a SMILES string. Activity calls are given as the source filed them.

For one assay, the target named is Large T antigen (Simian virus 40, UniProt P03070). Format: functional, Betapolyomavirus macacae.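 Also: Confirmatory-stage PubChem screen for compounds that inhibit SV40 T antigen.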
Assay [1] in a line: HEp-2 cell cytotoxicity, dose response, cytotoxicity control for RSV inhibitor project, HTS (AID 2410). Format: functional. Particulars: human respiratory syncytial virus.
In another assay the target is T1, Aminopeptidase N (Plasmodium falciparum FcB1/Columbia, UniProt O96935).
T1 sequence (O96935 whole entry): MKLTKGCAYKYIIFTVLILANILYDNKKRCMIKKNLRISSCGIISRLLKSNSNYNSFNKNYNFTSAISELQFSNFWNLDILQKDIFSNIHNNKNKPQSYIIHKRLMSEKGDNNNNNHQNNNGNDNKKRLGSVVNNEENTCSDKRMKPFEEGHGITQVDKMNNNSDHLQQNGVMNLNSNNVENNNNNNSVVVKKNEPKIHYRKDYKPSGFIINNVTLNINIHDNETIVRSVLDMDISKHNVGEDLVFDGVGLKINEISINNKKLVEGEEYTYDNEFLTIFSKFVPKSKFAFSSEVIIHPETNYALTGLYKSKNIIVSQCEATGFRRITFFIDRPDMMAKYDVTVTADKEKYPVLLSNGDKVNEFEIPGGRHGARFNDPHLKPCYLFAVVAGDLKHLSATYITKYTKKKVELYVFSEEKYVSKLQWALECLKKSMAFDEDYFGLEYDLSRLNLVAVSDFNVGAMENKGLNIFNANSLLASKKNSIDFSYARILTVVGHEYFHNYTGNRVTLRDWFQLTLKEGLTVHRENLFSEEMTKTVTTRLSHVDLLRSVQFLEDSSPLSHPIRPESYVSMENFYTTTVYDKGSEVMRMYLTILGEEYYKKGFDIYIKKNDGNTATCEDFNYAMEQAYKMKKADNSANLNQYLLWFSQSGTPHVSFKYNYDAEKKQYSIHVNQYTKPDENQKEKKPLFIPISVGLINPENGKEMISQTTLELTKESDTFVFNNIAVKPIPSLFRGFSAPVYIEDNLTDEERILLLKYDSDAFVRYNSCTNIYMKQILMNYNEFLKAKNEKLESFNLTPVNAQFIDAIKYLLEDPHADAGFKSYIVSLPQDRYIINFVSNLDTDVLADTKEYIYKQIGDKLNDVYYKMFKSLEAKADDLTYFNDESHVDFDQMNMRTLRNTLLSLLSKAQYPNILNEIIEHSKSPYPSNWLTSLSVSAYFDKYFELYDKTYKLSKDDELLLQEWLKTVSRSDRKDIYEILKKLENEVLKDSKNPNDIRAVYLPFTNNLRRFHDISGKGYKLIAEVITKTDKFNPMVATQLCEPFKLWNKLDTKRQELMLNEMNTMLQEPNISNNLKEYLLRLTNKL
The assay is described as follows: P. falciparum M1AAP inhibitors, biochemical, fluorogenic H-Leu-NHMec substrate, 1536-well (AID 1445). More on the design: species or system Plasmodium falciparum 3D7, 3D7.

Assay [2] is described as follows: cytotoxicity in HEK-293T cells, dose response, cytotoxicity control for TCR NF-kB inhibitor project, luminescence, T-cell screen hits (AID 489026).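 Also: cells exposed to compound about 14 hours before the viability readout.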 The format is functional, cell-based.
In assay [3] the target is Eukaryotic translation initiation factor 4E (Mus musculus, UniProt P63073). The assay is described as follows: eIF4E–eIF4G protein interaction inhibitors, dose response, biochemical, TR-FRET (AID 855).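 Also: potency for disrupting eIF4E binding to eIF4GI seen as loss of FRET.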 The format is functional. Background: In TR-FRET formats the signal depends on donor and acceptor labels being close together.
The nature of the next assay: cells. The format is functional.
The next assay has as its target Nonstructural protein 1 (Influenza A virus, UniProt Q194T2). The format is functional, Influenza A virus (A/California/07/2009(H1N1)).
A short description of assay [4]: inhibitors of HIV Env-driven cell fusion, dose response, cherry-pick (AID 652057). Format: functional, cell-based.
Assay [5] is described as follows: inhibitors of clade B AD8 Env fusion, dose response, cell-based, cherry-pick (AID 652062).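 Also: luciferase signal from cell-cell fusion driven by HIV-1 clade B AD8 Env; potency is for inhibitors of fusion seen as a drop in luminescence.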 The format is functional.
Assay [6] has as its target T2, Carboxy-terminal domain RNA polymerase II polypeptide A small phosphatase 1 (Homo sapiens, UniProt Q9GZU7).
T2 sequence (Q9GZU7 whole entry): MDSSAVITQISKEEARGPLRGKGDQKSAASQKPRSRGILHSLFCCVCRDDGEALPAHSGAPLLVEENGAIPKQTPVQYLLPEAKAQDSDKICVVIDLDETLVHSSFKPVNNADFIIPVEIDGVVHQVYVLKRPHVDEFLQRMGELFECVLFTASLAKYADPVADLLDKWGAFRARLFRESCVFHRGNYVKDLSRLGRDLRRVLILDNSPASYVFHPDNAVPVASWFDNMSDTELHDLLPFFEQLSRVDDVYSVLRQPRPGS
Briefly: inhibitors of CTDSP1, concentration-response testing, biochemical assay, absorbance-based, actives from ultra-high-throughput screening (AID 540297). The format is functional.

Assay [7] has as its target DNA dC->dU-editing enzyme APOBEC-3G (Homo sapiens, UniProt Q9HC16). The assay is described as follows: Dose Response confirmation of small molecule APOBEC3G DNA Deaminase Inhibitors via a fluorescence-based single-stranded DNA deaminase assay. [Related pubchem assays (depositor defined):AID493012, AID493028]. The format is functional.

Sequence of Eukaryotic translation initiation factor 4E (P63073 whole entry): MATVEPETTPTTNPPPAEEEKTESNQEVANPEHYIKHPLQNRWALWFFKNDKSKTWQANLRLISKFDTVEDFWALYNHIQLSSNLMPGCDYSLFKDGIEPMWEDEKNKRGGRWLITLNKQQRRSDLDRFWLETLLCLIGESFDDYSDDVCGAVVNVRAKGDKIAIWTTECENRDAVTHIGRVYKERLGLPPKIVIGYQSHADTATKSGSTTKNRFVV
Sequence of Nonstructural protein 1 (Q194T2 whole entry, the tested form may be a part): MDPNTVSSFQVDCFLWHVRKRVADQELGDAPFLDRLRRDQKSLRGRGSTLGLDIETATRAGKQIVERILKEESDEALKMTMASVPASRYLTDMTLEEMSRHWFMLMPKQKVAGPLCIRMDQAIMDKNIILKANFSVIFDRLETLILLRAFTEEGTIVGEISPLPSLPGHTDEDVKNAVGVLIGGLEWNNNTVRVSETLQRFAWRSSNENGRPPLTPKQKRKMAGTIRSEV
Sequence of Large T antigen (P03070 whole entry): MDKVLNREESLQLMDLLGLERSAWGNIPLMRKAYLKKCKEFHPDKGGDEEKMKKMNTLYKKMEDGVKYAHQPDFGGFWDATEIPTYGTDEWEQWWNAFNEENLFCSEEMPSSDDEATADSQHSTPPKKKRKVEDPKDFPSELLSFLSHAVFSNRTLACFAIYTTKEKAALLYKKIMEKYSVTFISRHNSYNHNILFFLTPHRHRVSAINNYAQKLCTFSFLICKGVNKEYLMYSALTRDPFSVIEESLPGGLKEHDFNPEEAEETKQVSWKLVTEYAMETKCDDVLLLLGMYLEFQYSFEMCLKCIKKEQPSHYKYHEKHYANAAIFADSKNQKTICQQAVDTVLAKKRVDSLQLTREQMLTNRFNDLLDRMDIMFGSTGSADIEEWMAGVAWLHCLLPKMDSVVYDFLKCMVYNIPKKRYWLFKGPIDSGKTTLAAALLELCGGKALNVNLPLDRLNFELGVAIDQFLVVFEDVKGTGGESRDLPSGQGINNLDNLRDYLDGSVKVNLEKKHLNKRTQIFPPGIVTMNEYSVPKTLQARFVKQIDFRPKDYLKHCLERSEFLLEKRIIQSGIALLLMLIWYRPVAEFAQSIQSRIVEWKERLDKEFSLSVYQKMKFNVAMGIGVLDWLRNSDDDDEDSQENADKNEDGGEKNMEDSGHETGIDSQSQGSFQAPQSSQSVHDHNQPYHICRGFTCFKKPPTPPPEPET
Sequence of DNA dC->dU-editing enzyme APOBEC-3G (Q9HC16 whole entry): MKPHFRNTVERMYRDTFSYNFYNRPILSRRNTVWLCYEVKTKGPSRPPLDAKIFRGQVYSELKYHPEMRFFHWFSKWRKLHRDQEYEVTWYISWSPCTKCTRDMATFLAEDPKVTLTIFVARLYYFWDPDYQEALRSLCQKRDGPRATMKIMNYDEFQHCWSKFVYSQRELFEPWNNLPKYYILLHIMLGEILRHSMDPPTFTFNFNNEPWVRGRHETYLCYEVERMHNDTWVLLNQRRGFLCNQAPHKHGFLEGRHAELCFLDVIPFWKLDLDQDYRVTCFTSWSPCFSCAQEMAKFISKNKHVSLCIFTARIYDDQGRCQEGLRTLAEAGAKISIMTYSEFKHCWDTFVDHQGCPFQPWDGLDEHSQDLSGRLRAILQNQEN

A word on the IC50: it is the concentration that inhibits the measured activity by half. For the compound `CCOc1cc(NS(=O)(=O)c2ccc(NC(C)=O)cc2)c(OCC)cc1NC(=O)c1cccs1`, at Large T antigen, the half-inhibitory concentration (IC50) was 24 µM (active).

`O=c1cc(CN2CCN(c3ccc(O)cc3)CC2)nc2scc(-c3ccccc3)n12`: on Large T antigen, the half-maximal inhibitory concentration (IC50) is 10.5 µM (active). Broadly, the CC50 is the concentration at which the toxic effect on the cells reaches its halfway point. In the case of `Cc1ccc2nc(NS(C)(=O)=O)sc2c1`, the CC50 in assay [1] is 23 µM (active).

On to `CN(C(=O)c1ccccc1OCc1ccc(Cl)cc1)c1ccccc1`, for which, in assay [1], the CC50 was 25.7 µM (active). Take `COc1cc(NS(=O)(=O)c2ccc(NC(=S)NC(=O)c3cccs3)cc2)nc(OC)n1`: the IC50 on Aminopeptidase N is 38.9 µM (active).

Consider `CN1/C(=C\C(=O)c2cccnc2)Sc2ccccc21`, for which the CC50 in assay [1] is 26.5 µM (active).

For `O=[N+]([O-])c1ccc(Sc2ccc(Cl)c(Cl)c2)nc1`, the IC50 in assay [2] is > 80 µM (inactive). Take `CCn1c(CNC(=O)c2cccs2)nnc1SCC(=O)NCCc1ccccc1`: at Aminopeptidase N, the IC50 is 90 µM (active). For `COc1ccc(C(=O)CN2C(=O)NC(C)(c3ccc(C)cc3)C2=O)cc1OC` (stereo unspecified), the IC50 in assay [3] is > 64 µM (inactive). On to `Cc1cccc(NC(=O)c2ccc(OC3CSC3)cc2)c1`, for which the IC50 in the assay “cells” was 44 µM (active). For `Cc1ccc2cc(CCNS(=O)(=O)c3ccc(Br)cc3)c(O)nc2c1C`, the CC50 in assay [1] was 22.1 µM (active).

As for `CN1CCN(C(=S)SCC(=O)Nc2ccc(Cl)cc2C(=O)c2ccccc2)CC1`, the IC50 on Nonstructural protein 1 is > 100 µM (active).

`Cc1ccc(S(=O)(=O)NNC2=NS(=O)(=O)c3ccccc32)c(C)c1`: the 50% inhibitory concentration (IC50) on Aminopeptidase N was 9.97 µM (active). On the same count and under the same terms, the same measure for `CCCCc1nc(NCCNC(=O)c2ccco2)c(C#N)c2c1CSC(C)(C)C2`: 85.3 µM (active).

What is called AC50 is the midpoint of the concentration-response curve, whichever way the signal moves. On to `COc1ccc(OC2C(=O)N(Cc3ccc4c(c3)OCO4)C2c2cccs2)cc1` (stereo unspecified), for which the AC50 in [4] is 53.1 µM (active); in assay [5], 1.71 µM (active).

On to `CCN(CC)c1ccc(S(=O)(=O)N(CC)CC)cc1NC(=O)c1cccnc1`, for which the concentration for half-maximal inhibition (IC50) at Aminopeptidase N is 28.5 µM (active).

With `CCN(CC)S(=O)(=O)c1ccc(OC)c(NC(=O)Cc2cccs2)c1`, the IC50 in assay [3] was 50 µM (inactive); in [6], 4.5 µM (active). Taken in the same sequence, the figures for `N#C/C(=C\c1ccc(OC(=O)c2ccc(Br)s2)cc1)c1nc2ccccc2[nH]1` were > 64 µM (inactive) and 1.78 µM (active). For `CC1CCN(c2c(NCC3CCC(C(=O)NCCc4ccc(Cl)cc4)CC3)c(=O)c2=O)CC1` (stereo unspecified), the CC50 in assay [1] was > 50 µM (active). As to `O=C1CCC(C(=O)Nc2cccc(S(=O)(=O)Nc3ccccc3F)c2)=NN1`, in [7], the 50% inhibitory concentration (IC50) was 24.6 µM (active). Consider `C[C@H](NC(=O)c1ccccc1)C(=O)Nc1nc(-c2ccccn2)cs1`, for which the IC50 at Nonstructural protein 1 was 16.3 µM (active). With `Cc1ccc(S(=O)(=O)N(C)C[C@@H]2Oc3ccc(NC(=O)Cn4cnnn4)cc3CC(=O)N([C@H](C)CO)C[C@@H]2C)cc1`, the half-maximal activity concentration (AC50) in assay [4] is 2.96 µM (active); in assay [5], 7.7 µM (active).

Turning to `C[C@H]1CN([C@@H](C)CO)C(=O)c2ccccc2-c2ccccc2CO[C@H]1CN(C)S(=O)(=O)c1cccc(C#N)c1`, the half-maximal activity concentration (AC50) in assay [4] was < 0.26 µM (active); in assay [5] it was 0.743 µM (active).

Turning to `CCOC(=O)C(C)Oc1cccc2c(=O)n(CC(=O)NCc3ccco3)ccc12` (stereo unspecified), the IC50 in assay [2] was > 80 µM (inactive). Turning to `O=[N+]([O-])c1cc(/C=N/N=C(/Nc2ccccn2)c2ccccn2)ccc1O`, the 50% inhibitory concentration (IC50) on Nonstructural protein 1 is 2.46 µM (active).

Turning to `COc1ccccc1-c1noc(-c2ccccc2)n1`, in [3], the IC50 is > 64 µM (inactive).

The record behind these values is ChEMBL document CHEMBL1201862, “PubChem BioAssay data set” (2004).
